Test results from patent publication US9636418B2 (priority 2013, dated 2017).
“And” between values parts separate entries of the source, which are not always exact repeats. Equal entries are not always repeated. Where two headings read alike, the source gives them in different places.

Tests used:
Test in all cases: cell-based
[1] = biological target: T1, hNav1.4 (Homo sapiens, UniProt P35499); conditions: for IC50: IonWorks Quattro, read-out: IC50 Nav1.4; for Nav1.4/Nav1.7: ratio of IonWorks Quattro IC50 values
[2] = biological target: hNav1.3 (Homo sapiens, UniProt Q9NY46); conditions: IonWorks Quattro; read-out: IC50 Nav1.3
[3] = biological target: T2, hNav1.5 (Homo sapiens, UniProt Q14524); conditions: IonWorks Quattro; read-out: IC50 Nav1.5
[4] = biological target: T3, hNav1.7 (Homo sapiens, UniProt Q15858); conditions: IonWorks Quattro; read-out: IC50 Nav1.7
[5] = biological target: T2, hNav1.5; conditions: for IC50: PatchXpress, tonic block, read-out: PX hNav1.5 Tonic IC50; for Nav1.5/Nav1.7: ratio of PX tonic IC50 values
[6] = biological target: T3, hNav1.7; format: cell-based; conditions: PatchXpress, tonic block; read-out: PX hNav1.7 Tonic IC50
[7] = biological target: T1, hNav1.4; conditions: for IC50: PatchXpress, tonic block, read-out: PX hNav1.4 Tonic IC50; for Nav1.4/Nav1.7: ratio of PX tonic IC50 values

T3 sequence (Q15858 whole entry): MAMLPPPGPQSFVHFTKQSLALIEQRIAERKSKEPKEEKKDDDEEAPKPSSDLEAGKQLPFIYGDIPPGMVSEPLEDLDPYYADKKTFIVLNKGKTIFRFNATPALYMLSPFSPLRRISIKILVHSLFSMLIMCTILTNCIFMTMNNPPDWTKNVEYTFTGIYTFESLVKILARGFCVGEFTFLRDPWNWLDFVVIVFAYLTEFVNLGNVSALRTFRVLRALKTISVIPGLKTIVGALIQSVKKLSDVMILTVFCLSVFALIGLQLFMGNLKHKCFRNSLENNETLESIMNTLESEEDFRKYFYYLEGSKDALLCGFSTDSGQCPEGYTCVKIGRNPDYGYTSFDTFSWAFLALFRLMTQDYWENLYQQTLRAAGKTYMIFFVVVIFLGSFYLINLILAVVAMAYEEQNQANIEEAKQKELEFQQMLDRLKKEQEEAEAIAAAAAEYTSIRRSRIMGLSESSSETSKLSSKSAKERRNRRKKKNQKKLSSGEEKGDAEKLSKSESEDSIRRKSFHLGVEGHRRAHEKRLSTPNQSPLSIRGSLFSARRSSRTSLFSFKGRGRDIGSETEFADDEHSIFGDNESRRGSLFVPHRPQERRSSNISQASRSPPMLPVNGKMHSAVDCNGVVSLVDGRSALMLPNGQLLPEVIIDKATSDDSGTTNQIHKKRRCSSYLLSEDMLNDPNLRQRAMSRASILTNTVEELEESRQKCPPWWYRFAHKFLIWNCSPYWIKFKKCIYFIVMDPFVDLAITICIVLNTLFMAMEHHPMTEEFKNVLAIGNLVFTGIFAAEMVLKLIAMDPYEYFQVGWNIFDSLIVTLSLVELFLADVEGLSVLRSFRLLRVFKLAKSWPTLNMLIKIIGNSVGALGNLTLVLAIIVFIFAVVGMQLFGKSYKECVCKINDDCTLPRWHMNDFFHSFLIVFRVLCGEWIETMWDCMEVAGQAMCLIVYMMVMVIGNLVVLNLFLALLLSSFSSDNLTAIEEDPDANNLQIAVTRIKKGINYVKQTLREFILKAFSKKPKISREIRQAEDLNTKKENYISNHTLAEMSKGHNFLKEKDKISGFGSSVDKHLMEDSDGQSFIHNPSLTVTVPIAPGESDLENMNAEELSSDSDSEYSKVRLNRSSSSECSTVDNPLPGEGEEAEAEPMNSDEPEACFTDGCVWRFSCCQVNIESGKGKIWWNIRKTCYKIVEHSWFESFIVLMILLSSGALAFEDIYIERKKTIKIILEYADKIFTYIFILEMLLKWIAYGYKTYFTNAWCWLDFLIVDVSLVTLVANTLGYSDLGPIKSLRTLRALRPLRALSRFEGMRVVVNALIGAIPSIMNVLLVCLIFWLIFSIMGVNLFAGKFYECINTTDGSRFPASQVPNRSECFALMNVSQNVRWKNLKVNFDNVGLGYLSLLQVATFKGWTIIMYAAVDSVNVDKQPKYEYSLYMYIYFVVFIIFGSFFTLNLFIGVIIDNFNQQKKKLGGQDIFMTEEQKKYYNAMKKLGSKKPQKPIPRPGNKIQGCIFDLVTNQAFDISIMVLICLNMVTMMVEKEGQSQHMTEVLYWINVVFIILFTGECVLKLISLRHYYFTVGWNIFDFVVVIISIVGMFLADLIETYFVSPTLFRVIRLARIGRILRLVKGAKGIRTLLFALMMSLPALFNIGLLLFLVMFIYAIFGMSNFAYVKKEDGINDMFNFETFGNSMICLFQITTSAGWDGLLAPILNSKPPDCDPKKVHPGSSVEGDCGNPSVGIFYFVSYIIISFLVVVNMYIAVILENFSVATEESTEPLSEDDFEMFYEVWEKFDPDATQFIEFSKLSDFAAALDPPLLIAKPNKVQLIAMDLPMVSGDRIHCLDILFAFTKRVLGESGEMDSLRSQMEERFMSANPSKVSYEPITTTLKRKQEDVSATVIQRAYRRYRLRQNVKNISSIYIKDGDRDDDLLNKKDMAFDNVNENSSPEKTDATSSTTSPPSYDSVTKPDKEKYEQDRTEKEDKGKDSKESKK
T1 sequence (P35499 whole entry): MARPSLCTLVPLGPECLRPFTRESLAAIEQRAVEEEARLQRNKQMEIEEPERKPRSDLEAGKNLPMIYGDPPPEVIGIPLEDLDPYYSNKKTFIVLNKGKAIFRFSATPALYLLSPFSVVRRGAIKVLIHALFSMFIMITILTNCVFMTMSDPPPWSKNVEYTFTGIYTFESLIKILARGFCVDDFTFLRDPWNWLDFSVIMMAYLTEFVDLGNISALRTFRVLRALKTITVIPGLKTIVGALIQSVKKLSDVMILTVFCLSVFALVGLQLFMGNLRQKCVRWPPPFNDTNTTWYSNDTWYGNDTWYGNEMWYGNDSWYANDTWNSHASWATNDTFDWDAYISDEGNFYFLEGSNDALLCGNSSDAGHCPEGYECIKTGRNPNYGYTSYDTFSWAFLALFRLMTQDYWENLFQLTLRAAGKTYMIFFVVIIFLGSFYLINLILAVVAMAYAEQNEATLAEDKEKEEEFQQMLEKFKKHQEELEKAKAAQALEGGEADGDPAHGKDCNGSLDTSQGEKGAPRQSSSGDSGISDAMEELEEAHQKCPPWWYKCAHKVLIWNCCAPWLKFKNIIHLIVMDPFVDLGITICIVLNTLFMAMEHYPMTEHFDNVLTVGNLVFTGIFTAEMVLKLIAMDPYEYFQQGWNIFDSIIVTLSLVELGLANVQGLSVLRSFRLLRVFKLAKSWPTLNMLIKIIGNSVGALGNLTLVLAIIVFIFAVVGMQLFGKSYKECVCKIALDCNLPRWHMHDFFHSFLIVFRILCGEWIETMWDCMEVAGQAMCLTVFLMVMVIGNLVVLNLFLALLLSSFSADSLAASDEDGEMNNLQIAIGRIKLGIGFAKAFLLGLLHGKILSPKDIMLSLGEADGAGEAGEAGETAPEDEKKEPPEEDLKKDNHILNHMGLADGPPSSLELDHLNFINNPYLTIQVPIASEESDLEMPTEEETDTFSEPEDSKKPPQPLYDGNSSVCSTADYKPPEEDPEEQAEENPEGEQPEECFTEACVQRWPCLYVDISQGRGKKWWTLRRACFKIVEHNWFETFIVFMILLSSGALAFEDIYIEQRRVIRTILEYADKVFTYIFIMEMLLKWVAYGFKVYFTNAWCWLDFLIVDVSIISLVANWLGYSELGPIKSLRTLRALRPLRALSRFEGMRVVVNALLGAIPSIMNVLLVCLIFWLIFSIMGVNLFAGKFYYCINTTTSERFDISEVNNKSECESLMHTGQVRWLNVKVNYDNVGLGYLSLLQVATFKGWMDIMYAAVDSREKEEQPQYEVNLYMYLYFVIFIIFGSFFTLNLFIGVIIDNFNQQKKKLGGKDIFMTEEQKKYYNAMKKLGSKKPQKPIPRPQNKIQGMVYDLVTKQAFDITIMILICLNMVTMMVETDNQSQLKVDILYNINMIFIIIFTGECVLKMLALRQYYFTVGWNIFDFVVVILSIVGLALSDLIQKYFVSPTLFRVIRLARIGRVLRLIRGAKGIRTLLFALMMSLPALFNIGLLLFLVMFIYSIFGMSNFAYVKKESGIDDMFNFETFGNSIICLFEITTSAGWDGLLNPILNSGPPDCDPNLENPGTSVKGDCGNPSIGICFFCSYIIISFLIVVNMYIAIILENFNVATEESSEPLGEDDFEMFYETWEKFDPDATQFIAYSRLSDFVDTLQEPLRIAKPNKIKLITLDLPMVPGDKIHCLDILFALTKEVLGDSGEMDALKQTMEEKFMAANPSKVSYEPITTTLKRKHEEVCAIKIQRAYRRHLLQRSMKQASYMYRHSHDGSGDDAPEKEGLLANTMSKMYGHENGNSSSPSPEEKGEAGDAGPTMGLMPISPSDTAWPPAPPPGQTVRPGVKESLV

| SMILES | IC50 [1] [nM] | IC50 [2] [nM] | IC50 [3] [nM] | IC50 [4] | Nav1.4/Nav1.7 [1] | IC50 [5] [nM] | Nav1.5/Nav1.7 [5] | IC50 [6] [nM] | IC50 [7] [nM] | Nav1.4/Nav1.7 [7] |
| --- | --- | --- | --- | --- | --- | --- | --- | --- | --- | --- |
| CC[C@H](C)[C@H](NC(=O)[C@H](Cc1ccc(O)cc1)NC(=O)[C@H](CCCCN)NC(=O)[C@H](CCCNC(=N)N)NC(=O)[C@@H]1CSSC[C@@H]2NC(=O)[C@H](C)NC(=O)[C@H](CCCNC(=N)N)NC(=O)[C@H](CCCCN)NC(=O)[C@H](CO)NC(=O)[C@H](CC(=O)O)NC(=O)[C@@H]3CSSC[C@H](NC(=O)[C@H](CCC(=O)O)NC(=O)[C@H](CC(C)C)NC(=O)CNC(=O)[C@H](CCC(=O)O)NC(=O)[C@H](CSSC[C@H](NC(=O)[C@@H](N)Cc4ccc(O)cc4)C(=O)N[C@@H](CCC(N)=O)C(=O)N[C@@H](CCCCN)C(=O)N[C@@H](CCCCN)C(=O)N[C@@H](CCSC)C(=O)N[C@@H](Cc4c[nH]c5ccccc45)C(=O)N[C@@H]([C@@H](C)O)C(=O)N3)NC2=O)C(=O)N[C@@H](CCCCN)C(=O)N[C@@H](CC(C)C)C(=O)N[C@@H](Cc2c[nH]c3ccccc23)C(=O)N1)C(N)=O [compound 200] | > 5000 | > 5000 | > 5000 | > 5000 nM |  |  |  |  |  |  |
| CC[C@H](C)[C@H](NC(=O)CNC(=O)[C@H](CCCCN)NC(=O)[C@H](CCCNC(=N)N)NC(=O)[C@@H]1CSSC[C@@H]2NC(=O)[C@H](C)NC(=O)[C@H](CCCNC(=N)N)NC(=O)[C@H](CCCCN)NC(=O)[C@H](CO)NC(=O)[C@H](CC(=O)O)NC(=O)[C@@H]3CSSC[C@H](NC(=O)[C@H](CCC(=O)O)NC(=O)[C@H](CC(C)C)NC(=O)CNC(=O)[C@H](CCC(=O)O)NC(=O)[C@H](CSSC[C@H](NC(=O)[C@@H](N)Cc4ccc(O)cc4)C(=O)N[C@@H](CCC(N)=O)C(=O)N[C@@H](CCCCN)C(=O)N[C@@H](Cc4c[nH]c5ccccc45)C(=O)N[C@@H](CCSC)C(=O)N[C@@H](Cc4c[nH]c5ccccc45)C(=O)N[C@@H]([C@@H](C)O)C(=O)N3)NC2=O)C(=O)N[C@@H](CCCCN)C(=O)N[C@@H](CC(C)C)C(=O)N[C@@H](Cc2c[nH]c3ccccc23)C(=O)N1)C(N)=O [compound 134] | > 5000 | > 5000 |  | 300 nM and 370 nM | 17 and 13 |  |  |  |  |  |
| C#CC[C@H](N)C(=O)NCCOCCOCCOCCOCCC(=O)NCCCC[C@@H]1NC(=O)[C@H](CCCNC(=N)N)NC(=O)[C@H](CCCCN)NC(=O)[C@H](CO)NC(=O)[C@H](CC(=O)O)NC(=O)[C@@H]2CSSC[C@@H]3NC(=O)[C@H](CCC(=O)O)NC(=O)[C@H](CC(C)C)NC(=O)CNC(=O)[C@H](CCC(=O)O)NC(=O)[C@H](CSSC[C@H](NC(=O)[C@@H](N)Cc4ccc(O)cc4)C(=O)N[C@@H](CCC(N)=O)C(=O)N[C@@H](CCCCN)C(=O)N[C@@H](Cc4c[nH]c5ccccc45)C(=O)N[C@@H](CCCC)C(=O)N[C@@H](Cc4c[nH]c5ccccc45)C(=O)N[C@@H]([C@@H](C)O)C(=O)N2)NC(=O)[C@H](CSSC[C@@H](C(=O)N[C@@H](CCCNC(=N)N)C(=O)N[C@@H](CCCCN)C(=O)N[C@H](C(=O)N[C@@H](Cc2c[nH]c4ccccc24)C(N)=O)[C@@H](C)CC)NC(=O)[C@H](Cc2c[nH]c4ccccc24)NC(=O)[C@H](CC(C)C)NC(=O)[C@H](CCCCN)NC3=O)NC1=O [compound 291] |  |  |  | 28 nM |  | 3010 | 100 | 30 | 1130 | 38 |
| C#CC[C@H](N)C(=O)N[C@@H](Cc1ccc(O)cc1)C(=O)N[C@H]1CSSC[C@@H]2NC(=O)[C@@H]3CSSC[C@@H](C(=O)N[C@@H](CCCNC(=N)N)C(=O)N[C@@H](CCCCN)C(=O)N[C@H](C(=O)N[C@@H](Cc4c[nH]c5ccccc45)C(N)=O)[C@@H](C)CC)NC(=O)[C@H](Cc4c[nH]c5ccccc45)NC(=O)[C@H](CC(C)C)NC(=O)[C@H](CCCCN)NC(=O)[C@H](CSSC[C@H](NC(=O)[C@H]([C@@H](C)O)NC(=O)[C@H](Cc4c[nH]c5ccccc45)NC(=O)[C@H](CCSC)NC(=O)[C@H](Cc4c[nH]c5ccccc45)NC(=O)[C@H](CCCCN)NC(=O)[C@H](CCC(N)=O)NC1=O)C(=O)N[C@@H](CC(=O)O)C(=O)N[C@@H](CO)C(=O)N[C@@H](CCCCN)C(=O)N[C@@H](CCCNC(=N)N)C(=O)N[C@@H](C)C(=O)N3)NC(=O)[C@H](CCC(=O)O)NC(=O)[C@H](CC(C)C)NC(=O)CNC(=O)[C@H](CCC(=O)O)NC2=O [compound 295] |  |  |  | 18 nM |  |  |  |  |  |  |
| CC[C@H](C)[C@H](NC(=O)[C@H](CCCCN)NC(=O)[C@H](CCCNC(=N)N)NC(=O)[C@@H]1CSSC[C@@H]2NC(=O)[C@H](C)NC(=O)[C@H](CCCNC(=N)N)NC(=O)[C@H](CCCCN)NC(=O)[C@H](CO)NC(=O)[C@H](CC(=O)O)NC(=O)[C@@H]3CSSC[C@H](NC(=O)[C@H](CCC(=O)O)NC(=O)[C@H](CC(C)C)NC(=O)CNC(=O)[C@H](CCC(=O)O)NC(=O)[C@H](CSSC[C@H](NC(=O)[C@@H](N)Cc4ccc(O)cc4)C(=O)N[C@@H](CCC(N)=O)C(=O)N[C@@H](CCCCN)C(=O)N[C@@H](Cc4c[nH]c5ccccc45)C(=O)N[C@@H](CCSC)C(=O)N[C@@H](Cc4c[nH]c5ccccc45)C(=O)N[C@@H]([C@@H](C)O)C(=O)N3)NC2=O)C(=O)N[C@@H](CCCCN)C(=O)N[C@@H](CC(C)C)C(=O)N[C@@H](Cc2c[nH]c3ccccc23)C(=O)N1)C(=O)N[C@@H](Cc1cn(CCCOCCOCCOCCOCCOCCOCCOCCOCCOCCOCCN)nn1)C(N)=O [compound 188] |  |  |  | ≥ 5000 nM | 1 |  |  |  |  |  |
| C#CC[C@H](N)C(=O)NCCOCCOCCOCCOCCOCCOCCOCCOCCOCCOCCOCCOCCC(=O)NCCCC[C@@H]1NC(=O)[C@H](CCCNC(=N)N)NC(=O)[C@H](CCCCN)NC(=O)[C@H](CO)NC(=O)[C@H](CC(=O)O)NC(=O)[C@@H]2CSSC[C@@H]3NC(=O)[C@H](CCC(=O)O)NC(=O)[C@H](CC(C)C)NC(=O)CNC(=O)[C@H](CCC(=O)O)NC(=O)[C@H](CSSC[C@H](NC(=O)[C@@H](N)Cc4ccc(O)cc4)C(=O)N[C@@H](CCC(N)=O)C(=O)N[C@@H](CCCCN)C(=O)N[C@@H](Cc4c[nH]c5ccccc45)C(=O)N[C@@H](CCCC)C(=O)N[C@@H](Cc4c[nH]c5ccccc45)C(=O)N[C@@H]([C@@H](C)O)C(=O)N2)NC(=O)[C@H](CSSC[C@@H](C(=O)N[C@@H](CCCNC(=N)N)C(=O)N[C@@H](CCCCN)C(=O)N[C@H](C(=O)N[C@@H](Cc2c[nH]c4ccccc24)C(N)=O)[C@@H](C)CC)NC(=O)[C@H](Cc2c[nH]c4ccccc24)NC(=O)[C@H](CC(C)C)NC(=O)[C@H](CCCCN)NC3=O)NC1=O [compound 290] |  |  |  | 52 nM |  | 6100 | 12 | 520 | 2730 | 5 |
| C#CC[C@H](N)C(=O)NCCOCCOCCOCCOCCOCCOCCOCCOCCOCCOCCOCCOCCC(=O)NCCCC[C@@H]1NC(=O)[C@@H]2CSSC[C@H](NC(=O)[C@@H](N)Cc3ccc(O)cc3)C(=O)N[C@@H](CCC(N)=O)C(=O)N[C@@H](CCCCN)C(=O)N[C@@H](Cc3c[nH]c4ccccc34)C(=O)N[C@@H](CCCC)C(=O)N[C@@H](Cc3c[nH]c4ccccc34)C(=O)N[C@@H]([C@@H](C)O)C(=O)N[C@H]3CSSC[C@H](NC(=O)[C@H](CCC(=O)O)NC(=O)[C@H](CC(C)C)NC(=O)CNC1=O)C(=O)N[C@@H](CCCCN)C(=O)N[C@@H](CC(C)C)C(=O)N[C@@H](Cc1c[nH]c4ccccc14)C(=O)N[C@H](C(=O)N[C@@H](CCCNC(=N)N)C(=O)N[C@@H](CCCCN)C(=O)N[C@H](C(=O)N[C@@H](Cc1c[nH]c4ccccc14)C(N)=O)[C@@H](C)CC)CSSC[C@H](NC(=O)[C@H](C)NC(=O)[C@H](CCCNC(=N)N)NC(=O)[C@H](CCCCN)NC(=O)[C@H](CO)NC(=O)[C@H](CC(=O)O)NC3=O)C(=O)N2 [compound 292] |  |  |  | 82 nM |  | 3120 | 3 | 900 | 1630 | 2 |
| C#CC[C@H](N)C(=O)NCCOCCOCCOCCOCCC(=O)NCCCC[C@@H]1NC(=O)[C@@H]2CSSC[C@H](NC(=O)[C@@H](N)Cc3ccc(O)cc3)C(=O)N[C@@H](CCC(N)=O)C(=O)N[C@@H](CCCCN)C(=O)N[C@@H](Cc3c[nH]c4ccccc34)C(=O)N[C@@H](CCCC)C(=O)N[C@@H](Cc3c[nH]c4ccccc34)C(=O)N[C@@H]([C@@H](C)O)C(=O)N[C@H]3CSSC[C@H](NC(=O)[C@H](CCC(=O)O)NC(=O)[C@H](CC(C)C)NC(=O)CNC1=O)C(=O)N[C@@H](CCCCN)C(=O)N[C@@H](CC(C)C)C(=O)N[C@@H](Cc1c[nH]c4ccccc14)C(=O)N[C@H](C(=O)N[C@@H](CCCNC(=N)N)C(=O)N[C@@H](CCCCN)C(=O)N[C@H](C(=O)N[C@@H](Cc1c[nH]c4ccccc14)C(N)=O)[C@@H](C)CC)CSSC[C@H](NC(=O)[C@H](C)NC(=O)[C@H](CCCNC(=N)N)NC(=O)[C@H](CCCCN)NC(=O)[C@H](CO)NC(=O)[C@H](CC(=O)O)NC3=O)C(=O)N2 [compound 293] |  |  |  | 41 nM |  | 580 | 1 | 570 | 453 | 1 |
| CC[C@H](C)[C@H](NC(=O)[C@@H](NC(=O)[C@H](CCCCN)NC(=O)[C@H](CCCNC(=N)N)NC(=O)[C@@H]1CSSC[C@@H]2NC(=O)[C@H](C)NC(=O)[C@H](CCCNC(=N)N)NC(=O)[C@H](CCCCN)NC(=O)[C@H](CO)NC(=O)[C@H](CC(=O)O)NC(=O)[C@@H]3CSSC[C@H](NC(=O)[C@H](CCC(=O)O)NC(=O)[C@H](CC(C)C)NC(=O)CNC(=O)[C@H](CCC(=O)O)NC(=O)[C@H](CSSC[C@H](NC(=O)[C@@H](N)Cc4ccc(O)cc4)C(=O)N[C@@H](CCC(N)=O)C(=O)N[C@@H](CCCCN)C(=O)N[C@@H](Cc4c[nH]c5ccccc45)C(=O)N[C@@H](CCSC)C(=O)N[C@@H](Cc4c[nH]c5ccccc45)C(=O)N[C@@H](Cc4cn(CCCOCCOCCOCCOCCOCCOCCOCCOCCOCCOCCN)nn4)C(=O)N3)NC2=O)C(=O)N[C@@H](CCCCN)C(=O)N[C@@H](CC(C)C)C(=O)N[C@@H](Cc2c[nH]c3ccccc23)C(=O)N1)[C@@H](C)CC)C(N)=O [compound 171] |  |  |  | ≥ 5000 nM | 1 |  |  |  |  |  |
